Data reported in patent publication EP0006061A1, “Medicinal compound consisting of a derivative of cyclopentyl aldehyde” (INSTITUT DE RECHERCHES CHIMIQUES ET BIOLOGIQUES APPLIQUEES …, priority 1978, dated 1979).

Legend:
rat femelle = assay: anti-inflammatory activity, carrageenin oedema test; assay type: in vivo; conditions: dose 200 µg per rat
Excerpt: L'activité anti-inflammatoire de l'exemple 4 a été étudiée chez le rat femelle (de poids 100 g) selon le test de l'oedème à la carragéenine.Les résultats sont donnés dans le tableau IV où l'Indométacine est utilisée comme produit de référence : […]

cobayes = assay: histamine aerosol bronchospasm (time to apnoea); assay type: in vivo; conditions: 0,1 mg/kg, aerosol for 10 min before histamine aerosol; controls 108 ± 18
Experimental: Les essais pharmaceutiques qui ont été mis en oeuvre avec les produits des exemples 1 et 4, ont été résumés ci-après : • 1°/ essais avec l'exemple 1 • a/ activité bactériostatique L' α-(2-formyl-3-méthyl-cyclopentyl)-acétal- déhyde inhibe les bactéries Gram (+) et Gram (-). Les CMI (concentration minimale inhibitrice) sont les suivantes : 0,75 mg/ml sur Staphylococcus aureus Londres, 1,2 mg/ml sur Escherichia coli, et 1,5 mg/ml sur Proteus • b/ activité antispasmodique : Les DE-50 du produit de l'exemple 1 ont été déterminés • (i) in vitro sur iléon isolé de cobaye vis à vis de l'histamine : DE - 50 = 50 γ/ml; • (ii) in vivo sur l'animal vivant selon la méthode de KONZETT & ROESLLER : DE - 50 = 2,6 mg/kg par administration i.v. • c/ activité antianaphylactique : Des cobayes mâles sont sensibilisés par deux injections de 0,5 ml d'une solution d'albumine à 2 g/1, à deux jours d'intervalle. Quatre semaines aprës,le choc anaphylactique mortel est provoqué par injection i.v. de 0,2 ml d'une solution aqueuse d'ovalbumine à 2 g/1. Les produits à tester sont administrés 30 mn avant (administration i.p.) ou en même temps (administration i.v.) que l'injection provoquant ledit choc anaphylactique. Les résultats sont donnés dans le tableau I pour le produit de l'exemple 1 et la Prométhazine en tant que produit de référence : [formula] • 2°/ essais avec le produit de l'exemple 4 (constitué par un mélange de 87 % en poids d'isomère "cis-trans" et 13 % en poids d'isomère "trans-cis). • a/ activité bactériostatigue : Le produit de l'exemple 4 inhibe les bactéries Gram (+) et Gram (-). […]

Row | Compound | inhibition par rapport aux témoins (rat femelle) [%] | Apparition de l'apnée (en secondes) (cobayes) [secondes]
1 | COc1ccc2c(c1)c(CC(=O)O)c(C)n2C(=O)c1ccc(Cl)cc1 [Indometacine, reference compound] | 57 | 
2 | CC(CN1c2ccccc2Sc2ccccc21)N(C)C (centres unmarked) [Prométhazine, reference compound] |  | >600
